According to patent US20200399318A1, “PEPTIDE INHIBITORS OF PHOSPHOGLYCERATE MUTASE AND METHODS OF USE” (priority 2016, published 2020):
Values joined by “and” are separate entries in the source; they are usually repeats but may differ in a detail not shown here. Equal entries are not always repeated. Where two headings read alike, the source gives them in different places.

Legend:
B. malayi iPGM = B. malayi iPGM (Brugia malayi, UniProt Q4VWF8); test: biochemical
O. volvulus iPGM = O. volvulus iPGM (Onchocerca volvulus, UniProt I6LDA6); test: biochemical
D. immitis iPGM = assay type: biochemical, Dirofilaria immitis
E. coli iPGM = E. coli iPGM (Escherichia coli, UniProt P37689); test: biochemical
[1] = system: iPGM orthologs and dPGM isozymes; assay type: biochemical
[2] = molecular target: T1, C. elegans cofactor-independent phosphoglycerate mutase (iPGM) (Caenorhabditis elegans), G5EFZ1; test: cell-based or functional assay
T1 chain: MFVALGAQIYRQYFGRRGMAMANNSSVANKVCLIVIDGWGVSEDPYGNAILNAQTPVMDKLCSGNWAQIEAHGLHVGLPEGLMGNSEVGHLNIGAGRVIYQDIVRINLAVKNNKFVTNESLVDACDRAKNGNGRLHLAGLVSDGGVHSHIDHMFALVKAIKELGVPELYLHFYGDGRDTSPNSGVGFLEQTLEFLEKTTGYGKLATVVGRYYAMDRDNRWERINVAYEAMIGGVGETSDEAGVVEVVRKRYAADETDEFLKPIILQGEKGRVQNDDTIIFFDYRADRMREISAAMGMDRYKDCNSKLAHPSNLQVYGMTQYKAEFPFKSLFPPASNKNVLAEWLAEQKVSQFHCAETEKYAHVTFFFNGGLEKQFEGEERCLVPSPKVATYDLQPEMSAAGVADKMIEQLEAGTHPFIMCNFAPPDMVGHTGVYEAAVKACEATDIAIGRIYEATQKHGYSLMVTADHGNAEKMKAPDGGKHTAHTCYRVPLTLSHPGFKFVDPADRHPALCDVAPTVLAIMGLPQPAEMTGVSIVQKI

[3] = molecular target: T2, E. coli cofactor-dependent phosphoglycerate mutase (dPGM) (Escherichia coli), P62707; test: cell-based or functional assay
T2 chain: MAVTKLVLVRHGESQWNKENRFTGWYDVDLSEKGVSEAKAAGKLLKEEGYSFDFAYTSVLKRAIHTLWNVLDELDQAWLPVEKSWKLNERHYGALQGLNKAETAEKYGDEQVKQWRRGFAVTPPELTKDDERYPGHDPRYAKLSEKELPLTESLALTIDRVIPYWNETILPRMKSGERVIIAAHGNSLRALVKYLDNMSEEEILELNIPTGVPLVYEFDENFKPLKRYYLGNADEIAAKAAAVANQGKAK

[4] = molecular target: T3, E. coli cofactor-independent phosphoglycerate mutase (iPGM) (Escherichia coli), P37689; test: cell-based or functional assay
[5] = molecular target: H. sapiens cofactor-dependent phosphoglycerate mutase (dPGM) (Homo sapiens), P18669; test: cell-based or functional assay
[6] = molecular target: T1, C. elegans cofactor-independent …; test: cell-based or functional assay
[7] = molecular target: T3, E. coli cofactor-independent …; test: cell-based or functional assay; remark: listed apart in the source
[8] = read-out: B. malayi iPGM Max Inhibition
[9] = read-out: O. volvulus iPGM Max Inhibition
[10] = read-out: E. coli iPGM Max Inhibition

O. volvulus iPGM, sequence (I6LDA6 whole entry, looked up): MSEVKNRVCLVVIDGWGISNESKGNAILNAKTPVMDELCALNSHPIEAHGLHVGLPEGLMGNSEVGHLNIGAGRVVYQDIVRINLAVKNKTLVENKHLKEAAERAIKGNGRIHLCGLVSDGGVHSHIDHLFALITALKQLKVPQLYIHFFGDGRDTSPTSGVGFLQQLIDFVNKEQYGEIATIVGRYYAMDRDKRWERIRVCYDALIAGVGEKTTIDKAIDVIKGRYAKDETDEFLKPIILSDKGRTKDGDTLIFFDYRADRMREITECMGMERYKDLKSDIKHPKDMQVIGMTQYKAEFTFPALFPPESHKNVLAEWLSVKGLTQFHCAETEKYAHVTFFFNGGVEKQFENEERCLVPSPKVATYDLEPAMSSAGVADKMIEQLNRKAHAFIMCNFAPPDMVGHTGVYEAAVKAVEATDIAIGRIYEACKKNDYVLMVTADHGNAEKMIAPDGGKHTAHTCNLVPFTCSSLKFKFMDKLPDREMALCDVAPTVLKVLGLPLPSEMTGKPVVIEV
E. coli iPGM, sequence (P37689 whole entry, looked up): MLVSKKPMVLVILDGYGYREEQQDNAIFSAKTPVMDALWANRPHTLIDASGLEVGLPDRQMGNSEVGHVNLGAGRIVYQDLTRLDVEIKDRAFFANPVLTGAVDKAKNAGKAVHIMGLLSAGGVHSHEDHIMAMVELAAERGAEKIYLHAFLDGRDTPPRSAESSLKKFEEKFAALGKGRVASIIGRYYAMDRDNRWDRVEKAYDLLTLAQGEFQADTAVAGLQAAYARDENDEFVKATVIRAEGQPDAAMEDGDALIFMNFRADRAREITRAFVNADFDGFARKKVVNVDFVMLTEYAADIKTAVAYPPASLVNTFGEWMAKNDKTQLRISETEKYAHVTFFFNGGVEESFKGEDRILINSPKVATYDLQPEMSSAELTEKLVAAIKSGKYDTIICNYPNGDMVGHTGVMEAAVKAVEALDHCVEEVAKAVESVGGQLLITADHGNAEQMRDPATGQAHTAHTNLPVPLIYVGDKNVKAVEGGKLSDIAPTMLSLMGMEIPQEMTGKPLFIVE
B. malayi iPGM, sequence (Q4VWF8 whole entry, looked up): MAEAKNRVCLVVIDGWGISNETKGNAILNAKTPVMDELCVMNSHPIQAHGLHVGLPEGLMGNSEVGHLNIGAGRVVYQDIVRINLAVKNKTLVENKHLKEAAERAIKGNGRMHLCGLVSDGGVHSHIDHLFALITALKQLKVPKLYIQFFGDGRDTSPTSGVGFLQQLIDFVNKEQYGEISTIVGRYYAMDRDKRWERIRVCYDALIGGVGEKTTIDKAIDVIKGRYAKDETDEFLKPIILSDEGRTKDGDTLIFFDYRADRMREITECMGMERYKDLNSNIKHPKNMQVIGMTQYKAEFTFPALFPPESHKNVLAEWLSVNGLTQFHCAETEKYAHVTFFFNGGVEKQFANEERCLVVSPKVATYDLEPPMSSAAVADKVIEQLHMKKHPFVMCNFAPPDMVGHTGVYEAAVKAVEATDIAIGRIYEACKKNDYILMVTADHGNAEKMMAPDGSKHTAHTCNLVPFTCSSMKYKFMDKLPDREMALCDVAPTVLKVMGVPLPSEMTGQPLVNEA

With CC(C)C[C@H](NC(=O)[C@H](Cc1ccc(O)cc1)NC(=O)[C@@H]1CSCC(=O)N[C@H](Cc2ccc(O)cc2)C(=O)N[C@@H](CC(=O)O)C(=O)N[C@@H](Cc2ccc(O)cc2)C(=O)N2CCC[C@H]2C(=O)NCC(=O)N[C@@H](CC(=O)O)C(=O)N[C@@H](Cc2ccc(O)cc2)C(=O)N1)C(=O)N[C@@H](Cc1ccc(O)cc1)C(=O)NCC(=O)N[C@H](C(=O)N[C@@H](CS)C(N)=O)[C@@H](C)O [Ce-2a] the “B. malayi iPGM PIC50, M” value (B. malayi iPGM) was 8.07 ± 0.10 M and 9.49 ± 0.08 M, the Emax (B. malayi iPGM; [8]) was 99.2 ± 5.3% and the inhibition at 0.0005 µM (B. malayi iPGM; [8]) was 100.3 ± 0.8%. The “O. volvulus iPGM PIC50, M” value (O. volvulus iPGM) was 7.31 ± 0.09 M, the “pIC50 O. volvulus iPGM” value (O. volvulus iPGM) was 9.68 and the Emax (O. volvulus iPGM; [9]) was 97.7 ± 4.4%. For the same molecule, the inhibition at 0.0005 µM (O. volvulus iPGM; [9]) was 97.5 ± 2.7%, the “D. immitis iPGM Max Inhibition” value (D. immitis iPGM) was −100.1 ± 5.6 and the “D. immitis iPGM PIC50, M” value (D. immitis iPGM) was 9.68 ± 0.09 M. The “D. immitis iPGM Max Inhibition” value (D. immitis iPGM; 0.0005 µM) was −92.5 ± 4.0, the “E. coli iPGM PIC50, M” value (E. coli iPGM) was 8.51 ± 0.14 M and 9.58 ± 0.02 M and the Emax (E. coli iPGM; [10]) was 99.2 ± 8.5%. The inhibition at 0.0005 µM (E. coli iPGM; [10]) was 84.1 ± 9.5% and the “inhibitory activity on the iPGM orthologs” value [1] was “subnanomolar potency”.

In the case of ^Ac-DYDYPGDYSYLY [Ce-L2d], the “B. malayi iPGM Max Inhibition” value (B. malayi iPGM) is reported as −7.3 ± 2.0, the “O. volvulus iPGM Max Inhibition” value (O. volvulus iPGM) is reported as −15.7 ± 8.3 and the “D. immitis iPGM Max Inhibition” value (D. immitis iPGM) is reported as −5.2 ± 4.9. The “E. coli iPGM Max Inhibition” value (E. coli iPGM) was −21.1 ± 2.4 and the “inhibitory activity on the iPGM orthologs” value [1] was “completely inactive”.

For ^Ac-DYLYGTCG [Ce-2tail], the “B. malayi iPGM Max Inhibition” value (B. malayi iPGM) was −10.2 ± 3.3, the “O. volvulus iPGM Max Inhibition” value (O. volvulus iPGM) was −11.6 ± 5.3 and the “D. immitis iPGM Max Inhibition” value (D. immitis iPGM) was −1.9 ± 10.3. For the same molecule, the “E. coli iPGM Max Inhibition” value (E. coli iPGM) was −21.1 ± 2.7 and the “activity on all PGMs” value [1] was “inactive”.

With YDYPGDYCYLY (modifications not checked) [Ce-2d] the Max Inhibition [2] was -103, the Max Inhibition (* iPGM 500 pM) [2] was -100 and the pEC50 (GEMBE) [2] was 8.49 pEC50. For the same molecule, the pIC50 [2] was 8.56 pIC50 (M), the pIC50 (* iPGM 500 pM) [2] was 9.03 pIC50 (M) and the Max Inhibition [3] was -6.3. It also gave a Max Inhibition (* series) [3] of 2.3, a Max Inhibition [4] of -102 and a pEC50 (GEMBE) [4] of 8.5 pEC50. For the same molecule, the pIC50 [4] was 8.71 pIC50 (M), the Max Inhibition [5] was -1.2 and the Max Inhibition (* series) [5] was 7.9. The IC50 [6] was 3.9 nM and 3.88 nM, the pIC50 [6] was 8.41 pIC50 and the IC50 [7] was 0.77 nM. It also gave a pIC50 [7] of 9.12 pIC50.
